Where two headings read alike, the source gives them in different places.
Tests used:
CYP3A4 [1] = conditions: PBPK model parameter, KO mouse model; scaled from in vitro Vmax of ref 27
ABCB1 [2] = conditions: homozygous 1236C > T polymorphism in the ABCB1 gene; cited from earlier work
[3] = Mdr1a/b constitutive knockout (KO), mouse, in vivo, iv, 3 mg/kg, 12 h
[4] = both FVB and KO mice; intravenous; cannulated gallbladder; cited from earlier work
ABCB1 [5] = assay: PBPK model: saturable ABCB1; parameters: species or system mice; conditions: value (SD) by parameter estimation, FVB data
[6] = PBPK model of docetaxel: simulations and parameter estimation; parameters: species or system mice; conditions: for % Difference between observed FVB AUC and predicted FVB AUC / % Difference between observed KO AUC and predicted KO AUC: 100 × (predicted − observed)/observed
tubulin [7] = conditions: higher than paclitaxel; cited from earlier work
[8] = Docetaxel pharmacokinetic; format: in vivo, mice; conditions: for AUC: FVB, mouse, iv, 3 mg/kg
CYP3A4 [9] = conditions: cited from earlier work
[10] = Docetaxel pharmacokinetic; conditions: 3 mg/kg i.v.
tubulin [11] = conditions: determined for colchicine, used for docetaxel; cited from earlier work
CYP3A4 [12] = conditions: cited from earlier work; remark: listed apart in the source
[13] = ref Kemper et al. 46; cited from earlier work
[14] = cited from earlier work
[15] = value (SD) by parameter estimation, FVB and KO data

Structure (SMILES): CC(=O)O[C@@]12CO[C@@H]1C[C@H](O)[C@@]1(C)C(=O)[C@H](O)C3=C(C)[C@@H](OC(=O)[C@H](O)[C@@H](NC(=O)OC(C)(C)C)c4ccccc4)C[C@@](O)([C@@H](OC(=O)c4ccccc4)[C@H]21)C3(C)C [docetaxel, Docetaxel]
- Saturable KO intestine metabolism Vmax (VMAXM_int_ko) (CYP3A4 [1]): 2,654 nmol/h/kg
- Decrease in docetaxel clearance (ABCB1 [2]): 25%
- Unchanged docetaxel recovered in the feces [3]: less than 1.5 % of the administered dose
- Unchanged drug recovered in the bile [4]: 3–4 % of the dose
- PGP transport Brain Vmax (VMAXT_brn) (ABCB1 [5]): 14,581 (3.232) nmol/h/kg
- PGP transport Heart Vmax (VMAXT_hrt) (ABCB1 [5]): 14,599 (3.449) nmol/h/kg
- PGP transport Kidney Vmax (VMAXT_kid) (ABCB1 [5]): 3,003 (0.012) nmol/h/kg
- PGP transport Km (KMT) (ABCB1 [5]): 28 (0.007) nmol/kg
- PGP transport Lung Vmax (VMAXT_lng) (ABCB1 [5]): 340,176 (13.151) nmol/h/kg
- PGP transport Slowly perfused Vmax (VMAXT_sp) (ABCB1 [5]): 10 (0.002) nmol/h/kg
- FVB tubular reabsorption rate constant (K_RABS_fvb) ([6]; FVB, value (SD) by parameter estimation): 0.02 (0.001) h^−1
- KO tubular reabsorption rate constant (K_RABS_ko) ([6]; KO, value (SD) by parameter estimation): 1.8 (0.001) h^−1
- % Difference between observed FVB AUC and predicted FVB AUC ([6]; brain): −4.3%
- % Difference between observed KO AUC and predicted KO AUC ([6]; brain): +14.8%
- % Difference between observed FVB AUC and predicted FVB AUC ([6]; heart): −11.3%
- % Difference between observed KO AUC and predicted KO AUC ([6]; heart): +2.9%
- First-order liver metabolism rate constant (K_LMET) ([6]; hepatic CYP3A4 metabolism, value (SD) by parameter estimation): 3,664 (1.444) h^−1
- First-order FVB intestine metabolism rate constant (K_IMET_fvb) ([6]; intestinal CYP3A4 metabolism, FVB, value (SD) by parameter estimation): 19 (0.008) h^−1
- % Difference between observed FVB AUC and predicted FVB AUC ([6]; intestine): −3.1%
- % Difference between observed KO AUC and predicted KO AUC ([6]; intestine): +0.2%
- % Difference between observed FVB AUC and predicted FVB AUC ([6]; kidney): +6.3%
- % Difference between observed KO AUC and predicted KO AUC ([6]; kidney): −0.7%
- % Difference between observed FVB AUC and predicted FVB AUC ([6]; liver): −8.6%
- % Difference between observed KO AUC and predicted KO AUC ([6]; liver): +3.0%
- % Difference between observed FVB AUC and predicted FVB AUC ([6]; lung): −7.9%
- % Difference between observed KO AUC and predicted KO AUC ([6]; lung): +5.1%
- % Difference between observed FVB AUC and predicted FVB AUC ([6]; plasma): −2.9%
- % Difference between observed KO AUC and predicted KO AUC ([6]; plasma): +14.8%
- Tubulin binding capacity, Slowly perfused (TB_sp) ([6]; value (SD) by parameter estimation): 521 (0.231) nmol/kg
- Partition coefficient FVB intestine:plasma (P_int_fvb) ([6]; value (SD) by parameter estimation, FVB): 195 (0.008) Ratio
- Partition coefficient Brain:plasma (P_brn) [6, 15]: 58 (0.013) Ratio
- Partition coefficient Heart:plasma (P_hrt) [6, 15]: 990 (0.231) Ratio
- Partition coefficient Kidney:plasma (P_kid) [6, 15]: 995 (0.222) Ratio
- Partition coefficient Liver:plasma (P_liv) [6, 15]: 7,088 (1.653) Ratio
- Partition coefficient Lung:plasma (P_lng) [6, 15]: 2,376 (0.546) Ratio
- Partition coefficient Slowly perfused:plasma (P_sp) [6, 15]: 748 (0.174) Ratio
- Partition coefficient KO intestine:plasma (P_int_ko) ([6]; value (SD) by parameter estimation, KO): 397 (33.970) Ratio
- Binding affinity relative to paclitaxel (tubulin [7]): approximately 1.9 fold
- Unchanged docetaxel recovered in the feces ([8]; FVB mice, 12 h, 3 mg/kg i.v.): less than 1.5 % of the administered dose
- AUC ([8]; brain): 0.184 µM·h
- AUC ([8]; heart): 13 µM·h
- AUC ([8]; intestine): 3.21 µM·h
- AUC ([8]; kidney): 14.5 µM·h
- AUC ([8]; liver): 4.34 µM·h
- AUC ([8]; lung): 18.9 µM·h
- AUC ([8]; plasma): 0.523 µM·h
- Vmax for CYP3A4 metabolism of docetaxel to M2 (CYP3A4 [9]; in vitro): 14 pmol/min/mg microsomal protein
- Km (CYP3A4 [9]; read-out: Km for CYP3A4 metabolism of docetaxel to M2): 0.6 µM
- Increase in docetaxel concentration in the liver of KO versus FVB mice ([10]; 12 h): 59%
- Docetaxel plasma concentrations, FVB versus KO mice ([10]; during the study (1–12 h)): did not note differences
- Docetaxel tissue concentration, KO versus FVB mice ([10]; lung, kidney, heart, intestine and brain at 2, 4, 8 and 12 h): statistically significant increase
- Tubulin binding capacity, Brain (TB_brn) (tubulin [11]): 10,710 nmol/kg
- Tubulin binding capacity, Heart (TB_hrt) (tubulin [11]): 1,970 nmol/kg
- Tubulin binding capacity, Intestine (TB_int) (tubulin [11]): 1,080 nmol/kg
- Tubulin binding capacity, Kidney (TB_kid) (tubulin [11]): 1,470 nmol/kg
- Tubulin binding capacity, Liver (TB_liv) (tubulin [11]): 3,510 nmol/kg
- Tubulin binding capacity, Lung (TB_lng) (tubulin [11]): 2,580 nmol/kg
- Docetaxel cleared from plasma relative to wild-type mice (CYP3A4 [12]; mice with CYP3A4 expression in only the intestine): 21%
- Docetaxel metabolites M1–4 recovered in the small intestine relative to wild-type mice (CYP3A4 [12]; transgenic mice with no CYP3A4 expression in the liver): 13.5%
- Increase in docetaxel exposure in the brain, KO versus FVB mice [13]: +516%
- Bound to plasma proteins [14]: 93%
- Fraction of docetaxel unbound to plasma proteins (FU) ([14]; unbound fraction in the blood): 0.07
